Assay results: patent US20100234372A1, “SUBSTITUTED 2-MERCAPTOQUINOLINE-3-CARBOXAMIDES AS KCNQ2/3 MODULATORS” (GRUNENTHAL GMBH, priority 2009, published 2010)
pEC50: −log10 of the molar value.

Target: T1, KCNQ2/3 channels (Homo sapiens, UniProt O43525+O43526)
T1 construct: expressed in transfected cells; host or cells: CHO-K1 cells
Assay: Fluorescence assay using a voltage-sensitive dye (fluorimetry)
Format: cell-based
Conditions: for pEC50: CHO-K1 cells expressing KCNQ2/3 channels; for Emax at 1 µM: 50 μM retigabine = 100%, CHO-K1 cells expressing KCNQ2/3, read-out: Fluorimetry % efficacy at 1 μM (50 μM retigabine = 100%)
Description: […] CHO-K1 cells expressing KCNQ2/3 channels are cultivated adherently at 37° C., 5% CO2 and 95% humidity in cell culture bottles (e.g. 80 cm^2 TC flasks, Nunc) with DMEM-high glucose (Sigma Aldrich, D7777) including 10% FCS (PAN Biotech, e.g. 3302-P270521) or alternatively MEM Alpha Medium (1×, liquid, Invitrogen, #22571), 10% foetal calf serum (FCS) (Invitrogen, #10270-106, heat-inactivated) and the necessary selection antibiotics.
Before being seeded out for the measurements, the cells are washed with a 1×DPBS buffer without Ca^2+/Mg^2+ (e.g. Invitrogen, #14190-094) and detached from the bottom of the culture vessel by means of Accutase (PAA Laboratories, #L11-007) (incubation with Accutase for 15 min at 37° C.). The cell count then present is determined using a CASY™ cell counter (TCC model, Scharfe System) in order subsequently to apply 20,000 to 30,000 cells/well/100 μl of the described nutrient medium, depending on density optimisation for the individual cell line, to 96-well measuring plates of the Corning™ CeIIBIND™ type (flat clear-bottom black polystyrene microplates, #3340). Incubation is then carried out for one hour at room temperature, without gassing or adjusting the humidity, followed by incubation for 24 hours at 37° C., 5% CO2 and 95% humidity.
The voltage-sensitive fluorescent dye from the Membrane Potential Assay Kit (Red™ bulk format part R8123 for FLIPR, MDS Analytical Technologies™) is prepared by dissolving the contents of a vessel of Membrane Potential Assay Kit Red Component A in 200 ml of extracellular buffer (ES buffer, 120 mM NaCl, 1 mM KCl, 10 mM HEPES, 2 mM CaCl2, 2 mM MgCl2, 10 mM glucose; pH 7.4). After removal of the nutrient medium, the cells are washed with 200 μl of ES buffer, then covered with a layer of 100 μl of the dye solution prepared above and incubated for 45 min at room temperature with exclusion of light.
The fluorescence measurements are carried out with a BMG Labtech FLUOstar™, BMG Labtech NOVOstar™ or BMG Labtech POLARstar™ instrument (525 nm excitation, 560 nm emission, bottom-read mode). After incubation of the dye, 50 μl of the substances to be tested in the desired concentrations, or 50 μl of ES buffer for control purposes, are introduced into separate cavities of the measuring plate and incubated for 30 min at room temperature whilst being shielded from light. The fluorescence intensity of the dye is then measured for 5 min and the fluorescence value F1 of each well is thus determined at a given, constant time. 15 μl of a […] KCl solution ([…]) are then added to each well. The change in fluorescence is subsequently measured until all relevant measured values have been obtained (mainly 5-30 min). At a given time after KCl application, a fluorescence value F2 is determined, in this case at the time of the fluorescence peak.
For calculation, the fluorescence intensity F2 is compared with the fluorescence intensity F1, and the agonistic activity of the target compound on the potassium channel is determined therefrom. F2 and F1 are calculated as follows: […]
is determined by adding to the reaction batch only the buffer solution instead of the substance to be tested, determining the value F1K of the fluorescence intensity, adding the potassium ions as described above and measuring a value F2K of the fluorescence intensity. Then F2K and F1K are calculated as follows: […]
Calculations of EC50 values are carried out with the aid of Prism v4.0 software (GraphPad Software™).

CCSc1nc2cc(C(F)(F)F)ccc2c(C)c1C(=O)NCc1cccc(C(C)(C)C)c1 [compound 56]
pEC50: 7.17
Emax at 1 µM: 97%

CCSc1nc2cc(C(F)(F)F)ccc2c(C)c1C(=O)NCCCC(C)C [compound 57]
pEC50: 6.82
Emax at 1 µM: 205%

CCSc1nc2cc(C(F)(F)F)ccc2c(C)c1C(=O)NCc1ccc(C)s1 [compound 69]
pEC50: 6.07
Emax at 1 µM: 123%

CCSc1nc2cc(C(F)(F)F)ccc2c(C)c1C(=O)NCc1cc(C)cs1 [compound 70]
pEC50: 5.83
Emax at 1 µM: 114%

CCSc1nc2cc(C(F)(F)F)ccc2c(C)c1C(=O)NCc1ccc(Cl)s1 [compound 71]
pEC50: 6.52
Emax at 1 µM: 163%

CCSc1nc2cc(C(F)(F)F)ccc2c(C)c1C(=O)NCCc1cccs1 [compound 72]
pEC50: 6.14
Emax at 1 µM: 59%

CCSc1nc2cc(C(F)(F)F)ccc2c(C)c1C(=O)NCC1CC2CCC1C2 (centres unmarked) [compound 73]
Emax at 1 µM: 25%

CCSc1nc2cc(C(F)(F)F)ccc2c(C)c1C(=O)NCc1ccccc1 [compound 74]
pEC50: 6.79
Emax at 1 µM: 128%

CCSc1nc2cc(C(F)(F)F)ccc2c(C)c1C(=O)NCc1ccccc1F [compound 75]
pEC50: 7.15
Emax at 1 µM: 88%

CCSc1nc2cc(C(F)(F)F)ccc2c(C)c1C(=O)NCc1ccccc1Cl [compound 78]
Emax at 1 µM: 33%

CCSc1nc2cc(C(F)(F)F)ccc2c(C)c1C(=O)NCc1cccc(Cl)c1 [compound 79]
pEC50: 6.91
Emax at 1 µM: 116%

CCSc1nc2cc(C(F)(F)F)ccc2c(C)c1C(=O)NCc1ccc(Cl)cc1 [compound 80]
pEC50: 6.83
Emax at 1 µM: 135%

CCSc1nc2cc(C(F)(F)F)ccc2c(C)c1C(=O)NCc1ccccc1C [compound 81]
Emax at 1 µM: 28%

CCSc1nc2cc(C(F)(F)F)ccc2c(C)c1C(=O)NCc1cccc(C)c1 [compound 82]
pEC50: 6.66
Emax at 1 µM: 108%

CCSc1nc2cc(C(F)(F)F)ccc2c(C)c1C(=O)NCc1ccc(C)cc1 [compound 83]
pEC50: 6.62
Emax at 1 µM: 130%

CCSc1nc2cc(C(F)(F)F)ccc2c(C)c1C(=O)NCc1ccccc1OC [compound 84]
Emax at 1 µM: 25%

CCSc1nc2cc(C(F)(F)F)ccc2c(C)c1C(=O)NCc1cccc(OC)c1 [compound 85]
pEC50: 6.38
Emax at 1 µM: 89%

CCSc1nc2cc(C(F)(F)F)ccc2c(C)c1C(=O)NCc1ccc(OC)cc1 [compound 86]
pEC50: 6.25
Emax at 1 µM: 108%

CCSc1nc2cc(C(F)(F)F)ccc2c(C)c1C(=O)NCc1cc(F)cc(F)c1 [compound 87]
pEC50: 6.84
Emax at 1 µM: 159%

CSc1nc2cc(C(F)(F)F)ccc2c(C)c1C(=O)NCc1cccs1 [compound 88]
pEC50: 6.67
Emax at 1 µM: 154%

CCSc1nc2cc(C(F)(F)F)ccc2cc1C(=O)NCC(C)(C)C [compound 90]
pEC50: 6.07
Emax at 1 µM: 53%

CCSc1nc2ccccc2c(C)c1C(=O)NCc1cccs1 [compound 91]
pEC50: 5.92
Emax at 1 µM: 50%

CCSc1nc2ccccc2c(C)c1C(=O)NCc1cccc(F)c1 [compound 92]
pEC50: 6.02
Emax at 1 µM: 65%

Cc1c(C(=O)NCc2cccc(F)c2)c(SC(C)(C)C)nc2cc(C(F)(F)F)ccc12 [compound 93]
pEC50: 7.06
Emax at 1 µM: 157%

CCSc1nc2cc(C(C)(C)C)ccc2c(C)c1C(=O)NCc1cccc(F)c1 [compound 95]
pEC50: 6.20
Emax at 1 µM: 96%

CCSc1nc2cc(C(C)(C)C)ccc2c(C)c1C(=O)NCc1ccc(F)cc1 [compound 96]
pEC50: 6.09
Emax at 1 µM: 101%

CCSc1nc2cc(OC)ccc2c(C)c1C(=O)NCc1cccc(F)c1 [compound 97]
pEC50: 6.21
Emax at 1 µM: 60%

CCSc1nc2cc(OC)ccc2c(C)c1C(=O)NCc1ccc(F)cc1 [compound 98]
pEC50: 6.39
Emax at 1 µM: 70%

CCSc1nc2ccc(C)cc2c(C)c1C(=O)NCc1cccc(F)c1 [compound 99]
pEC50: 6.21
Emax at 1 µM: 90%

CCSc1nc2ccc(C)cc2c(C)c1C(=O)NCc1ccc(F)cc1 [compound 100]
pEC50: 6.47
Emax at 1 µM: 45%

CCSc1nc2ccc(OC)cc2c(C)c1C(=O)NCc1cccc(F)c1 [compound 101]
Emax at 1 µM: 17%

CCSc1nc2ccc(OC)cc2c(C)c1C(=O)NCc1ccc(F)cc1 [compound 102]
Emax at 1 µM: 14%

CCSc1nc2ccc(C(F)(F)F)cc2c(C)c1C(=O)NCc1cccc(F)c1 [compound 103]
pEC50: 6.11
Emax at 1 µM: 115%

CCSc1nc2ccc(C(F)(F)F)cc2c(C)c1C(=O)NCc1ccc(F)cc1 [compound 104]
Emax at 1 µM: 25%

CCSc1nc2cc(F)ccc2c(C)c1C(=O)NCc1cccc(F)c1 [compound 105]
pEC50: 6.61
Emax at 1 µM: 140%

CCSc1nc2cc(F)ccc2c(C)c1C(=O)NCc1ccc(F)cc1 [compound 106]
pEC50: 6.67
Emax at 1 µM: 143%

CCSc1nc2cc(C)ccc2c(C)c1C(=O)NCc1cccc(F)c1 [compound 107]
pEC50: 6.30
Emax at 1 µM: 161%

CCSc1nc2cc(C)ccc2c(C)c1C(=O)NCc1ccc(F)cc1 [compound 108]
pEC50: 6.29
Emax at 1 µM: 149%

CCSc1nc2cc(C(F)(F)F)ccc2c(C)c1C(=O)NCc1ccco1 [compound 110]
pEC50: 7.05
Emax at 1 µM: 183%

CCSc1nc2cc(C(F)(F)F)ccc2c(C)c1C(=O)NCc1ccc(C)o1 [compound 111]
pEC50: 7.07
Emax at 1 µM: 178%

CCSc1nc2cc(C(F)(F)F)ccc2c(C)c1C(=O)NCc1cccc(O)c1 [compound 113]
pEC50: 5.40
Emax at 1 µM: 66%

CSc1nc2cc(C(F)(F)F)ccc2c(C)c1C(=O)NCc1cccc(F)c1 [compound 114]
pEC50: 6.77
Emax at 1 µM: 175%

CSc1nc2cc(C(F)(F)F)ccc2c(C)c1C(=O)NCc1ccc(F)cc1 [compound 115]
pEC50: 6.87
Emax at 1 µM: 150%

CCSc1nc2ccc(F)cc2c(C)c1C(=O)NCc1cccc(F)c1 [compound 116]
pEC50: 6.22
Emax at 1 µM: 147%

CCSc1nc2ccc(F)cc2c(C)c1C(=O)NCc1ccc(F)cc1 [compound 117]
pEC50: 6.65
Emax at 1 µM: 87%

CCSc1nc2cc(F)c(F)cc2c(C)c1C(=O)NCc1cccc(F)c1 [compound 118]
pEC50: 6.83
Emax at 1 µM: 149%

CCSc1nc2cc(C(F)(F)F)ccc2c(C)c1C(=O)NCc1ccc(O)cc1 [compound 119]
pEC50: 5.56
Emax at 1 µM: 72%

CCSc1nc2c(F)cccc2c(C)c1C(=O)NCc1cccc(F)c1 [compound 120]
pEC50: 5.92
Emax at 1 µM: 157%

CCSc1nc2c(F)cccc2c(C)c1C(=O)NCc1ccc(F)cc1 [compound 121]
pEC50: 6.48
Emax at 1 µM: 90%

CCSc1nc2cc(C(F)(F)F)ccc2c(Cl)c1C(=O)NCc1cccc(F)c1 [compound 122, 4-Chloro-2-ethylsulfanyl-N-[(3-fluorophenyl)-methyl]-7-(trifluoromethyl)-quinoline-3-carboxamide]
pEC50: 7.19
Emax at 1 µM: 171%

CCSc1nc2cccc(F)c2c(C)c1C(=O)NCc1cccc(F)c1 [compound 123]
Emax at 1 µM: 8%

CCSc1nc2cccc(F)c2c(C)c1C(=O)NCc1ccc(F)cc1 [compound 124]
Emax at 1 µM: 8%

CCSc1nc2cccc(OC)c2c(C)c1C(=O)NCc1cccc(F)c1 [compound 125]
Emax at 1 µM: 14%

CCSc1nc2cccc(OC)c2c(C)c1C(=O)NCc1ccc(F)cc1 [compound 126]
Emax at 1 µM: 5%

CCSc1nc2cccc(O)c2c(C)c1C(=O)NCc1cccc(F)c1 [compound 127]
Emax at 1 µM: 18%
